In US8198273B2, “Compounds and methods for kinase modulation, and indications therefor” (Plexxikon Inc., priority 2009, dated 2012) one finds IC50 data, which are given here for 22 molecules.

By IC50 is commonly meant the concentration needed to halve the response being measured.

The target in one data set is CYP2D6 (Homo sapiens, UniProt P10635). Kind of data set: CYP2D6 inhibition (fluorescent substrate). It counts as in vitro ADME. To be noted: CYP2D6, AMMC substrate; read-out: Cyp IC50 2D6. In outline:
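10-pt 1:1 serial dilution in co-factor mix (DMSO stock 100 mM); 10 min preincubation, 37 °C; reaction at 37 °C. Readout: fluorescent metabolite of probe substrate. IC50 from signal vs [compound].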

Data set [1] has as its system SKMEL2 melanoma cells (Ras mutation). Kind of data set: SKMEL2 cell growth inhibition (ATPlite). As to conditions: Homo sapiens, SK-MEL-2, 72 h; SKMEL2, 3 days incubation. It counts as cell-based. In outline: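 SKMEL2 cells seeded at 2,000 per well overnight, then exposed to an 8-point 1:3 compound titration (top 10 μM final) for 3 days at 37 °C. ATPlite luminescence used as a measure of cell number to derive IC50.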
A general note: In ATP-based viability assays light output follows the ATP content of the culture.

In another data set the target is B-Raf (Homo sapiens, UniProt P15056). The data set can be described thus: B-Raf biochemical kinase inhibition (AlphaScreen, biotin-MEK1 substrate). To be noted: 100 μM ATP. In short, it runs like this: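 Eight-point compound series (made from a 0.1 mM DMSO stock) tested against each Raf enzyme with biotin-MEK1 substrate and 100 μM final ATP.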
Another data set has as its target CYP3A4(BQ) (Homo sapiens, UniProt P08684). The data set can be described thus: CYP3A4(BQ) inhibition (fluorescent substrate). In kind it is in vitro ADME. As to conditions: read-out: Cyp IC50 3A4(BQ). In short, it runs like this:
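Compound, from a 100 mM DMSO stock and diluted 1:1 over 10 points in co-factor mix, was incubated at 37° C with enzyme and a known substrate. Decrease in fluorescent product against concentration gave the IC50.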

SMILES strings stand for the structures.

Sequence of CYP3A4(BQ) (P08684 whole entry): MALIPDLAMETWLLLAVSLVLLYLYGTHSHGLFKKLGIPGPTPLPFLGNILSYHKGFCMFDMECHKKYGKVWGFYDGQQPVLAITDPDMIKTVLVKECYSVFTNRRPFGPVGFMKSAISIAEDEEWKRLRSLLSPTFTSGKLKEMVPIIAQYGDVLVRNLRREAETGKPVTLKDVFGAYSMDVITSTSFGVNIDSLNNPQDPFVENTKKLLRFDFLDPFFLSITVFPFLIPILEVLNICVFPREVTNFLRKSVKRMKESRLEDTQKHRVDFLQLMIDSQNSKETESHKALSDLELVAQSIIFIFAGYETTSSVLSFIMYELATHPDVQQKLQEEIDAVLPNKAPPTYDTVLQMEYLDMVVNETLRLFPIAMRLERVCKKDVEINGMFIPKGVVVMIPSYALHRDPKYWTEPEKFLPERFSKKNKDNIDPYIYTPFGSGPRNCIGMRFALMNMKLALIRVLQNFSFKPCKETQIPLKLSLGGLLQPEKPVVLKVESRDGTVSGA
Sequence of CYP2D6 (P10635 whole entry): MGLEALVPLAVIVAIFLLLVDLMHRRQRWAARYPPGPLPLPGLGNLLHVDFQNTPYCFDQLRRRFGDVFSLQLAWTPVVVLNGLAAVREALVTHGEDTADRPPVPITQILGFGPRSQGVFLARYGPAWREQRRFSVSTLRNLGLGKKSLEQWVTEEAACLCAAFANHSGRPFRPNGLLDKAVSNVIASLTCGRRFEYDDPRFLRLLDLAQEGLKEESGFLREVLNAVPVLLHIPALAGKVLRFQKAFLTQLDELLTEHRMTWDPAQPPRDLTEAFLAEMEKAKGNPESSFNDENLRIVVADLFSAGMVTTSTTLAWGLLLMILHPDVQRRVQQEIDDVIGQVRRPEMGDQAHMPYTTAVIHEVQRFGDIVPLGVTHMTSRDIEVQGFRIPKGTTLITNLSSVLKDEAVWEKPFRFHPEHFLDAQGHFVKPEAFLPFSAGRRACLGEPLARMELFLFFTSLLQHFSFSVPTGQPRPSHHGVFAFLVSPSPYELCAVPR
Sequence of B-Raf (P15056 whole entry): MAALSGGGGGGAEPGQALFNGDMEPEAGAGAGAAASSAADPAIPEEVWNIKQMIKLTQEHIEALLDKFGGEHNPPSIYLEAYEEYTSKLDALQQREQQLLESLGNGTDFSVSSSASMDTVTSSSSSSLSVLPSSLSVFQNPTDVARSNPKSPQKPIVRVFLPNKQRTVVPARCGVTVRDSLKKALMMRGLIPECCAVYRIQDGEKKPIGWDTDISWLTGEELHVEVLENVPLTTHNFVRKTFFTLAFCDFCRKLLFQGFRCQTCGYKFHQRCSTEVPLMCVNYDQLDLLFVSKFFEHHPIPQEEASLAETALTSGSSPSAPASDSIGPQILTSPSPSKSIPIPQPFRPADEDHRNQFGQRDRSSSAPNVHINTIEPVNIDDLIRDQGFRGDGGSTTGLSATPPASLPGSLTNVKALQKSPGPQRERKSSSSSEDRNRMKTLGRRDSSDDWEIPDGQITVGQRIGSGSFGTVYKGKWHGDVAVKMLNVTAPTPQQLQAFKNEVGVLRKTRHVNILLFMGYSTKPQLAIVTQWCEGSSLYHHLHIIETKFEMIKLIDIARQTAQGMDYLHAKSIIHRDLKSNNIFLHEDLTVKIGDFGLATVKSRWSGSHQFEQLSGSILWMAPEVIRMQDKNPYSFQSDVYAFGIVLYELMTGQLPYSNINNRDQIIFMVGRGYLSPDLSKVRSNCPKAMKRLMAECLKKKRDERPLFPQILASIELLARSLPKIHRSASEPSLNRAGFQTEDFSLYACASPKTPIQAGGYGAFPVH

In the case of `CCCS(=O)(=O)Nc1ccc(F)c(C(=O)c2c[nH]c3ncc(-c4ccc(S(=O)(=O)NC5CC5)cc4)cc23)c1F` [P-2168, N-Cyclopropyl-4-{3-[2,6-difluoro-3-(propane-1-sulfonylamino)-benzoyl]-1H-pyrrolo[2,3-b]pyridin-5-yl}-benzenesulfonamide], the results for the IC50 (at CYP2D6; in data set [1]; against B-Raf) were more than 10 µM, less than 5 µM and less than 0.01 µM, respectively.
For the molecule `CCCS(=O)(=O)Nc1ccc(F)c(C(=O)c2c[nH]c3ncc(-c4ccc(NS(C)(=O)=O)cc4)cc23)c1F` [P-2165, Propane-1-sulfonic acid {2,4-difluoro-3-[5-(4-methanesulfonylamino-phenyl)-1H-pyrrolo[2,3-b]pyridine-3-carbonyl]-phenyl}-amide], the 50% inhibitory concentration (IC50) on CYP3A4(BQ) is more than 10 µM; at CYP2D6 it was more than 10 µM; in data set [1], less than 10 µM; on B-Raf it was less than 0.01 µM.
`CCCS(=O)(=O)Nc1ccc(F)c(C(=O)c2c[nH]c3ncc(-c4ccc(S(=O)(=O)N(C)C)cc4)cc23)c1F` [P-2185, 4-{3-[2,6-Difluoro-3-(propane-1-sulfonylamino)-benzoyl]-1H-pyrrolo[2,3-b]pyridin-5-yl}-N,N-dimethyl-benzenesulfonamide]: the IC50 on CYP3A4(BQ) was more than 10 µM; on CYP2D6, more than 10 µM; in data set [1], more than 10 µM; against B-Raf, less than 0.01 µM.
As for `CCCS(=O)(=O)Nc1ccc(F)c(C(=O)c2c[nH]c3ncc(-c4ccc(N)nc4)cc23)c1F` [P-2214, Propane-1-sulfonic acid {3-[5-(6-amino-pyridin-3-yl)-1H-pyrrolo[2,3-b]pyridine-3-carbonyl]-2,4-difluoro-phenyl}-amide], the IC50 was more than 10 µM on CYP3A4(BQ), more than 10 µM on CYP2D6, more than 10 µM in data set [1] and less than 0.01 µM at B-Raf.
As for `N#Cc1cnc2[nH]cc(C(=O)c3c(F)ccc(NS(=O)(=O)c4ccccc4)c3F)c2c1` [P-2046, N-[3-(5-Cyano-1H-pyrrolo[2,3-b]pyridine-3-carbonyl)-2,4-difluoro-phenyl]-benzenesulfonamide], the IC50 was more than 10 µM on CYP3A4(BQ), more than 10 µM at CYP2D6, more than 10 µM in data set [1] and less than 0.01 µM on B-Raf.
For `CCCS(=O)(=O)Nc1ccc(F)c(C(=O)c2c[nH]c3ncc(-c4ccc(S(=O)(=O)CC)cc4)cc23)c1F` [P-2218, Propane-1-sulfonic acid {3-[5-(4-ethanesulfonyl-phenyl)-1H-pyrrolo[2,3-b]pyridine-3-carbonyl]-2,4-difluoro-phenyl}-amide], the half-inhibitory concentration (IC50) at CYP3A4(BQ) is more than 10 µM; at CYP2D6 it was more than 10 µM; in data set [1] it was more than 10 µM; against B-Raf, less than 0.1 µM.
In the case of `O=C(c1c(F)ccc(NS(=O)(=O)c2cccc(F)c2)c1F)c1c[nH]c2nccc(Cl)c12` [P-2019, N-[3-(4-Chloro-1H-pyrrolo[2,3-b]pyridine-3-carbonyl)-2,4-difluoro-phenyl]-3-fluoro-benzenesulfonamide], the half-maximal inhibitory concentration (IC50) was more than 10 µM on CYP3A4(BQ), more than 10 µM at CYP2D6, more than 10 µM in data set [1] and less than 0.01 µM at B-Raf.
Take `COc1cnc2[nH]cc(C(=O)c3c(F)ccc(NS(=O)(=O)c4ccccc4F)c3F)c2c1` [P-2009, N-[2,4-Difluoro-3-(5-methoxy-1H-pyrrolo[2,3-b]pyridine-3-carbonyl)-phenyl]-2-fluoro-benzenesulfonamide]: the IC50 on CYP3A4(BQ) is more than 10 µM; at CYP2D6, more than 10 µM; in data set [1] it was more than 10 µM; against B-Raf, less than 0.1 µM.
For the molecule `N#Cc1cnc2[nH]cc(C(=O)c3c(F)ccc(NS(=O)(=O)c4ccccc4F)c3F)c2c1` [P-2011, N-[3-(5-Cyano-1H-pyrrolo[2,3-b]pyridine-3-carbonyl)-2,4-difluoro-phenyl]-2-fluoro-benzenesulfonamide], the IC50 was more than 10 µM at CYP3A4(BQ), more than 10 µM at CYP2D6, more than 10 µM in data set [1] and less than 0.1 µM on B-Raf.
For `N#Cc1ccnc2[nH]cc(C(=O)c3c(F)ccc(NS(=O)(=O)c4ccccc4F)c3F)c12` [P-2020, N-[3-(4-Cyano-1H-pyrrolo[2,3-b]pyridine-3-carbonyl)-2,4-difluoro-phenyl]-2-fluoro-benzenesulfonamide], the half-maximal inhibitory concentration (IC50) was more than 10 µM on CYP3A4(BQ), more than 10 µM at CYP2D6, more than 10 µM in data set [1] and less than 0.01 µM against B-Raf.
Consider `CCCS(=O)(=O)Nc1cccc(C(=O)c2c[nH]c3ncc(-c4cnc(OC)nc4)cc23)c1F` [P-2407, Propane-1-sulfonic acid {2-fluoro-3-[5-(2-methoxy-pyrimidin-5-yl)-1H-pyrrolo[2,3-b]pyridine-3-carbonyl]-phenyl}-amide], for which the IC50 at CYP3A4(BQ) was more than 10 µM; on CYP2D6 it was more than 10 µM; in data set [1], less than 20 µM; against B-Raf it was less than 0.1 µM.
Turning to `CCCS(=O)(=O)Nc1ccc(F)c(C(=O)c2c[nH]c3ncc(-c4cnc(SC)nc4)cc23)c1F` [P-2189, Propane-1-sulfonic acid {2,4-difluoro-3-[5-(2-methylsulfanyl-pyrimidin-5-yl)-1H-pyrrolo[2,3-b]pyridine-3-carbonyl]-phenyl}-amide], the IC50 on CYP3A4(BQ) is less than 5 µM; on CYP2D6, more than 10 µM; in data set [1], less than 10 µM; on B-Raf, less than 0.01 µM.
The corresponding values for `N#Cc1ccnc2[nH]cc(C(=O)c3c(F)ccc(NS(=O)(=O)c4cccc(F)c4)c3F)c12` [P-2039, N-[3-(4-Cyano-1H-pyrrolo[2,3-b]pyridine-3-carbonyl)-2,4-difluoro-phenyl]-3-fluoro-benzenesulfonamide] are more than 10 µM, more than 10 µM, more than 10 µM and less than 0.01 µM.
The corresponding values for `N#Cc1cnc2[nH]cc(C(=O)c3c(F)ccc(NS(=O)(=O)c4cccnc4)c3F)c2c1` [P-2072, Pyridine-3-sulfonic acid [3-(5-cyano-1H-pyrrolo[2,3-b]pyridine-3-carbonyl)-2,4-difluoro-phenyl]-amide] are less than 5 µM, more than 10 µM, more than 10 µM and less than 0.01 µM.
For `CCCS(=O)(=O)Nc1ccc(F)c(C(=O)c2c[nH]c3ncc(-c4ccc(NC(C)=O)nc4)cc23)c1F` [P-2193, N-(5-{3-[2,6-Difluoro-3-(propane-1-sulfonylamino)-benzoyl]-1H-pyrrolo[2,3-b]pyridin-5-yl}-pyridin-2-yl)-acetamide], the concentration for half-maximal inhibition (IC50) at CYP3A4(BQ) is more than 10 µM; at CYP2D6, more than 10 µM; in data set [1], more than 10 µM; against B-Raf it was less than 0.01 µM.
For the molecule `Cc1cnc2[nH]cc(C(=O)c3c(F)ccc(NS(=O)(=O)c4cccc(F)c4)c3F)c2c1` [P-2016, N-[2,4-Difluoro-3-(5-methyl-1H-pyrrolo[2,3-b]pyridine-3-carbonyl)-phenyl]-3-fluoro-benzenesulfonamide], the half-inhibitory concentration (IC50) was 5 to 10 µM at CYP3A4(BQ), more than 10 µM at CYP2D6, more than 10 µM in data set [1] and less than 0.1 µM against B-Raf.
For the molecule `COc1ccnc2[nH]cc(C(=O)c3c(F)ccc(NS(=O)(=O)c4cc(F)ccc4F)c3F)c12` [P-2022, N-[2,4-Difluoro-3-(4-methoxy-1H-pyrrolo[2,3-b]pyridine-3-carbonyl)-phenyl]-2,5-difluoro-benzenesulfonamide], the IC50 is more than 10 µM on CYP2D6, more than 10 µM in data set [1] and less than 0.1 µM against B-Raf.
As for `CCCS(=O)(=O)Nc1ccc(F)c(C(=O)c2c[nH]c3ncc(-c4cnc(N5CCCC5)nc4)cc23)c1F` [P-2219, Propane-1-sulfonic acid {2,4-difluoro-3-[5-(2-pyrrolidin-1-yl-pyrimidin-5-yl)-1H-pyrrolo[2,3-b]pyridine-3-carbonyl]-phenyl}-amide], the half-maximal inhibitory concentration (IC50) on CYP2D6 is more than 10 µM; in data set [1], more than 10 µM; against B-Raf, less than 0.1 µM.
In the case of `CCCS(=O)(=O)Nc1ccc(F)c(C(=O)c2c[nH]c3ncc(-c4ccc(C#CCN(CC)CC)nc4)cc23)c1F` [P-2222, Propane-1-sulfonic acid (3-{5-[6-(3-diethylamino-prop-1-ynyl)-pyridin-3-yl]-1H-pyrrolo[2,3-b]pyridine-3-carbonyl}-2,4-difluoro-phenyl)-amide], the IC50 is 5 to 10 µM at CYP3A4(BQ), 5 to 10 µM at CYP2D6 and less than 0.01 µM at B-Raf.
For `COc1ccnc2[nH]cc(C(=O)c3c(F)ccc(NS(=O)(=O)c4ccccc4F)c3F)c12` [P-2021, N-[2,4-Difluoro-3-(4-methoxy-1H-pyrrolo[2,3-b]pyridine-3-carbonyl)-phenyl]-2-fluoro-benzenesulfonamide], the 50% inhibitory concentration (IC50) is more than 10 µM on CYP3A4(BQ), more than 10 µM at CYP2D6 and less than 0.1 µM against B-Raf.
For the molecule `CCCS(=O)(=O)Nc1ccc(F)c(C(=O)c2c[nH]c3ncc(-c4ccnc(F)c4)cc23)c1F` [P-2192, Propane-1-sulfonic acid {2,4-difluoro-3-[5-(2-fluoro-pyridin-4-yl)-1H-pyrrolo[2,3-b]pyridine-3-carbonyl]-phenyl}-amide], the values for the IC50 on CYP3A4(BQ), on CYP2D6 and against B-Raf were more than 10 µM, more than 10 µM and less than 0.01 µM, respectively.
As to `CCCS(=O)(=O)Nc1ccc(F)c(C(=O)c2c[nH]c3ncc(-c4ccc(S(N)(=O)=O)cc4)cc23)c1F` [P-2194, 4-{3-[2,6-Difluoro-3-(propane-1-sulfonylamino)-benzoyl]-1H-pyrrolo[2,3-b]pyridin-5-yl}-benzenesulfonamide], the figures for the IC50 at CYP3A4(BQ), at CYP2D6 and against B-Raf were more than 10 µM, more than 10 µM and less than 0.01 µM, respectively.
